Results: patent US20070299139A1, “Lyophilisate Comprising N-Diaminomethylene-2-Methyl-4,5-Di(Methylsulfonyl)Benzamide” (priority 2004, published 2007)

Test: Stability of the active compound in aqueous solution
Type: physicochemical
Details: hydrolyses
Source text: The development of this active compound in intensive medicine requires that it is available in parenterally administrable form, best as aqueous solution.

- stability in aqueous solution: not stable in aqueous solution
Structure (SMILES): Cc1cc(S(C)(=O)=O)c(S(C)(=O)=O)cc1C(=O)NC(=N)N [N-diaminomethylene-2-methyl-4,5-di(methylsulfonyl)benzamide]
